The results in this text go back to PubChem BioAssay AID1745844 (Carcinogenic Potency Database (CPDB), 2022).

For this data set, the system named is rodent lifetime carcinogenesis bioassay, tumor incidence TD50. Kind of data set: chronic cancer bioassays in animals – CPDB, compiled studies (AID 1745844).
Where [1] appears, read: mouse, strain B6AKF1, females, oral dosing, site: any site (literature study), lesion: several types, types named in the paper, dosed 76 weeks, study length 76 weeks.
Setting [2] is: mouse, strain B6AKF1, females, oral dosing, site: lung, lesion: adenoma, dosed 76 weeks, study length 76 weeks.
[3] abbreviates: mouse, strain B6AKF1, males, oral dosing, site: any site (literature study), lesion: several types, types named in the paper, dosed 76 weeks, study length 76 weeks.
Where [4] appears, read: mouse, strain B6AKF1, males, oral dosing, site: liver, lesion: hepatoma, dosed 76 weeks, study length 76 weeks.
[5] abbreviates: mouse, strain B6AKF1, males, oral dosing, site: lung, lesion: adenoma, dosed 76 weeks, study length 76 weeks.
[6] abbreviates: mouse, strain B6C3F1, females, oral dosing, site: liver, lesion: hepatoma, dosed 76 weeks, study length 76 weeks.
Where [7] appears, read: mouse, strain B6C3F1, males, oral dosing, site: any site (literature study), lesion: several types, types named in the paper, dosed 76 weeks, study length 76 weeks.
Where [8] appears, read: mouse, strain B6C3F1, males, oral dosing, site: liver, lesion: hepatoma, dosed 76 weeks, study length 76 weeks.

The source made the active and inactive calls. How the calls were made is not given here.

Take `S=C([S-])NCCNC(=S)[S-].[Zn+2]`: the TD50 was 1150 mg/kg/day (inactive) under setting [1]; 1150 mg/kg/day (inactive) under setting [2]; 715 mg/kg/day (inactive) under setting [3]; 903 mg/kg/day (inactive) under setting [4]; 1150 mg/kg/day (inactive) (mouse, strain B6C3F1, females, oral dosing, site: any site (literature study), lesion: several types, types named in the paper, dosed 76 weeks, study length 76 weeks); 1150 mg/kg/day (inactive) (mouse, strain B6C3F1, females, oral dosing, site: lung, lesion: adenoma, dosed 76 weeks, study length 76 weeks). In addition, the TD50 runs as follows: under setting [7], 189 mg/kg/day (inactive); under setting [8], 244 mg/kg/day (inactive); (mouse, strain CFLP, females, in feed, site: liver, lesion: hepatocellular adenoma, dosed 92 weeks, study length 94 weeks) 1730 mg/kg/day (inactive); (mouse, strain CFLP, females, in feed, site: liver, lesion: hepatocellular carcinoma, dosed 92 weeks, study length 94 weeks) 12600 mg/kg/day (inactive); (mouse, strain CFLP, females, in feed, site: lung, lesion: adenocarcinoma, dosed 92 weeks, study length 94 weeks) 6490 mg/kg/day (inactive); (mouse, strain CFLP, males, in feed, site: liver, lesion: hepatocellular adenoma, dosed 96 weeks, study length 96 weeks) 420 mg/kg/day (inactive). Moreover, the TD50 (mouse, strain CFLP, males, in feed, site: liver, lesion: hepatocellular carcinoma, dosed 96 weeks, study length 96 weeks) was 3700 mg/kg/day (inactive); the TD50 (mouse, strain CFLP, males, in feed, site: lung, lesion: adenoma, dosed 96 weeks, study length 96 weeks) was 932 mg/kg/day (inactive); the TD50 (rat, strain Charles River CD (Sprague-Dawley), females, in feed, site: liver, lesion: hepatocellular carcinoma, dosed 112 weeks, study length 112 weeks) was 1190 mg/kg/day (inactive); the TD50 (rat, strain Charles River CD (Sprague-Dawley), females, in feed, site: pituitary gland, lesion: adenoma, dosed 112 weeks, study length 112 weeks) was 27.9 mg/kg/day (inactive); the TD50 (rat, strain Charles River CD (Sprague-Dawley), males, in feed, site: liver, lesion: hepatocellular carcinoma, dosed 119 weeks, study length 119 weeks) was 1080 mg/kg/day (inactive); the TD50 (rat, strain Mongrel, both sexes, by gavage, site: any site (literature study), lesion: several types, types named in the paper, dosed 95 weeks, study length 104 weeks) is 255 mg/kg/day. The carcinogen call (mouse, strain B6AKF1, females, oral dosing, site: liver, lesion: hepatoma, dosed 76 weeks, study length 76 weeks) is “negative (inactive)”; the carcinogen call under setting [5] was “negative (inactive)”; the carcinogen call under setting [6] is “negative (inactive)”; the carcinogen call (mouse, strain B6C3F1, males, oral dosing, site: lung, lesion: several types, types named in the paper, dosed 76 weeks, study length 76 weeks) is “negative (inactive)”; the carcinogen call (mouse, strain CFLP, females, in feed, site: any site (literature study), lesion: several types, types named in the paper, dosed 92 weeks, study length 94 weeks) was “negative (inactive)”; the carcinogen call (mouse, strain CFLP, females, in feed, site: lung, lesion: adenoma, dosed 92 weeks, study length 94 weeks) is “negative (inactive)”. For the same compound, the carcinogen call is “negative (inactive)” (mouse, strain CFLP, males, in feed, site: any site (literature study), lesion: several types, types named in the paper, dosed 96 weeks, study length 96 weeks); “negative (inactive)” (mouse, strain CFLP, males, in feed, site: lung, lesion: adenocarcinoma, dosed 96 weeks, study length 96 weeks); “negative (inactive)” (rat, strain Charles River CD (Sprague-Dawley), females, in feed, site: liver, lesion: hepatocellular adenoma, dosed 112 weeks, study length 112 weeks); “negative (inactive)” (rat, strain Charles River CD (Sprague-Dawley), males, in feed, site: liver, lesion: hepatocellular adenoma, dosed 119 weeks, study length 119 weeks); “negative (inactive)” (rat, strain Charles River CD (Sprague-Dawley), males, in feed, site: pituitary gland, lesion: adenoma, dosed 119 weeks, study length 119 weeks).
With `O=S1(=O)N=C(O)c2ccccc21`, the carcinogen call is “negative (inactive)” (rat, strain Fischer 344, males, in feed, site: forestomach, lesion: papilloma, dosed 72 weeks, study length 73 weeks) and “negative (inactive)” (rat, strain Fischer 344, males, in feed, site: urinary bladder, lesion: carcinoma, dosed 72 weeks, study length 73 weeks).
As for `S=C=Nc1ccccc1`, the TD50 by setting is: under setting [1], 39.4 mg/kg/day (inactive); (mouse, strain B6AKF1, females, oral dosing, site: liver, lesion: hemangioma, dosed 76 weeks, study length 76 weeks) 138 mg/kg/day (inactive); under setting [7], 40.2 mg/kg/day (inactive); under setting [8], 128 mg/kg/day (inactive); (mouse, strain B6C3F1, males, oral dosing, site: lung, lesion: adenoma, dosed 76 weeks, study length 76 weeks) 128 mg/kg/day (inactive). For the same compound, the carcinogen call by setting is: under setting [2], “negative (inactive)”; under setting [3], “negative (inactive)”; under setting [4], “negative (inactive)”; under setting [5], “negative (inactive)”; (mouse, strain B6C3F1, females, oral dosing, site: any site (literature study), lesion: one or several types, types not named, dosed 76 weeks, study length 76 weeks) “negative (inactive)”; under setting [6], “negative (inactive)”. In addition, the carcinogen call (mouse, strain B6C3F1, females, oral dosing, site: lung, lesion: several types, types named in the paper, dosed 76 weeks, study length 76 weeks) was “negative (inactive)”.
With `CCOC(=O)C1OC1(C)c1ccccc1` (stereo unspecified), the TD50 is, setting by setting: (rat, strain Wistar, females, in feed, site: any site (literature study), lesion: benign tumor, dosed 104 weeks, study length 104 weeks) 253 mg/kg/day (inactive); (rat, strain Wistar, females, in feed, site: any site (literature study), lesion: malignant tumor, dosed 104 weeks, study length 104 weeks) 2230 mg/kg/day (inactive); (rat, strain Wistar, females, in feed, site: liver, lesion: hemangioendothelioma, dosed 104 weeks, study length 104 weeks) 9360 mg/kg/day (inactive); (rat, strain Wistar, females, in feed, site: pituitary gland, lesion: adenoma, dosed 104 weeks, study length 104 weeks) 331 mg/kg/day (inactive); (rat, strain Wistar, males, in feed, site: any site (literature study), lesion: benign tumor, dosed 104 weeks, study length 104 weeks) 1150 mg/kg/day (inactive); (rat, strain Wistar, males, in feed, site: any site (literature study), lesion: malignant tumor, dosed 104 weeks, study length 104 weeks) 4110 mg/kg/day (inactive). Besides, where the note is “rat, strain Wistar, males, in feed, site: testis, lesion: interstitial-cell tumor, dosed 104 weeks, study length 104 weeks”, the TD50 is 1150 mg/kg/day (inactive). Moreover, under “rat, strain Wistar, males, in feed, site: liver, lesion: one or several types, types not named, dosed 104 weeks, study length 104 weeks”, the carcinogen call is “negative (inactive)”.
As for `O=C1CCC(=O)O1`, the carcinogen call is “negative (inactive)” (mouse, strain B6C3F1, females, by gavage, site: any site (literature study), lesion: several types, types named in the paper, dosed 103 weeks, study length 104 weeks); “negative (inactive)” (mouse, strain B6C3F1, males, by gavage, site: any site (literature study), lesion: several types, types named in the paper, dosed 103 weeks, study length 104 weeks); “negative (inactive)” (rat, strain Fischer 344, females, by gavage, site: any site (literature study), lesion: several types, types named in the paper, dosed 103 weeks, study length 105 weeks); “negative (inactive)” (rat, strain Fischer 344, males, by gavage, site: any site (literature study), lesion: several types, types named in the paper, dosed 103 weeks, study length 105 weeks). Further, the TD50 by setting is: (mouse, strain B6C3F1, females, by gavage, site: lung, lesion: alveolar/bronchiolar adenoma + alveolar/bronchiolar carcinoma, dosed 103 weeks, study length 104 weeks) 4690 mg/kg/day; (rat, strain Fischer 344, females, by gavage, site: liver, lesion: hepatocellular adenoma + hepatocellular carcinoma + neoplastic nodule, dosed 103 weeks, study length 105 weeks) 1300 mg/kg/day.
Consider `FC(F)(Cl)Cl`, for which the TD50 is 4100 mg/kg/day (inactive) (mouse, strain Swiss, females, inhaled, site: all sites, lesion: leukemia, dosed 78 weeks, study length 104 weeks); 3320 mg/kg/day (inactive) (mouse, strain Swiss, females, inhaled, site: any site (literature study), lesion: malignant tumor, dosed 78 weeks, study length 104 weeks); 59000 mg/kg/day (inactive) (mouse, strain Swiss, females, inhaled, site: any site (literature study), lesion: several types, types named in the paper, dosed 78 weeks, study length 104 weeks); 91900 mg/kg/day (inactive) (mouse, strain Swiss, females, inhaled, site: lung, lesion: adenoma, dosed 78 weeks, study length 104 weeks); 33100 mg/kg/day (inactive) (mouse, strain Swiss, males, inhaled, site: any site (literature study), lesion: malignant tumor, dosed 78 weeks, study length 104 weeks); 12100 mg/kg/day (inactive) (mouse, strain Swiss, males, inhaled, site: any site (literature study), lesion: several types, types named in the paper, dosed 78 weeks, study length 104 weeks). Moreover, the TD50 was 41900 mg/kg/day (inactive) (mouse, strain Swiss, males, inhaled, site: lung, lesion: adenoma, dosed 78 weeks, study length 104 weeks); 31300 mg/kg/day (inactive) (rat, strain Sprague-Dawley, females, inhaled, site: liver, lesion: angiosarcoma, dosed 104 weeks, study length 104 weeks); 1320 mg/kg/day (inactive) (rat, strain Sprague-Dawley, males, inhaled, site: adrenal gland, lesion: pheochromocytoma, dosed 104 weeks, study length 104 weeks); 555 mg/kg/day (inactive) (rat, strain Sprague-Dawley, males, inhaled, site: any site (literature study), lesion: several types, types named in the paper, dosed 104 weeks, study length 104 weeks). Further, the carcinogen call is “negative (inactive)” (rat, strain Sprague-Dawley, females, inhaled, site: any site (literature study), lesion: malignant tumor, dosed 104 weeks, study length 104 weeks); “negative (inactive)” (rat, strain Sprague-Dawley, females, inhaled, site: any site (literature study), lesion: several types, types named in the paper, dosed 104 weeks, study length 104 weeks); “negative (inactive)” (rat, strain Sprague-Dawley, males, inhaled, site: any site (literature study), lesion: malignant tumor, dosed 104 weeks, study length 104 weeks); “negative (inactive)” (rat, strain Sprague-Dawley, males, inhaled, site: liver, lesion: angiosarcoma, dosed 104 weeks, study length 104 weeks).

Broadly, the TD50 is the dose at which the toxic effect under study appears in half of the subjects.
